Measured values published in article PMC8187479, “Sugar phosphate activation of the stress sensor eIF2B” (Nature Communications, 2021).
Where “and” joins values, the source holds several entries; their conditions need not be identical. Equal entries are not always repeated.

Assays:
eIF2Bα [1] = target: T1, eIF2Bα (Homo sapiens, UniProt Q14232); assay: MIDAS (mass spectrometry integrated with equilibrium dialysis) metabolite binding screen; details: MIDAS screen, sheet eIF2Ba; metabolites screened in pools 1-4; p-value and q-value given
T1 construct: made in house; host or cells: E. coli BL21(DE3)
T1 sequence (Q14232 1-305): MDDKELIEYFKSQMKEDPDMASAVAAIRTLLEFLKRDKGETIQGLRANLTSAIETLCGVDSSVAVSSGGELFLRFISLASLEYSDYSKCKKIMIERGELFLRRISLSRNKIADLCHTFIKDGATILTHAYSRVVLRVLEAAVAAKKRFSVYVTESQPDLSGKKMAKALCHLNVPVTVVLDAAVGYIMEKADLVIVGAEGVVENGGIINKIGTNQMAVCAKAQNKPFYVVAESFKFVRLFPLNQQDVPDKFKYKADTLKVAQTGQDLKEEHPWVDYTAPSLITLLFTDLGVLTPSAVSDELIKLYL
Summary of the method: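 Hits called at Storey q < 0.1 on z-scores of PCA-corrected log2 fold change between protein and metabolite chambers, quantified by FIA-MS in triplicate.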

eIF2Bα [2] = target: T1, eIF2Bα; assay: Differential scanning fluorimetry (Protein Thermal Shift), eIF2Bα Tm; assay type: binding; details: individual replicates Rep 1-4, control without metabolite about 64.1
Description: The effect of metabolite binding on eIF2Bα Tm was assessed using the Protein Thermal Shift assay (Thermo Fisher), following manufacturer’s instructions. Briefly, reaction conditions for each 20 μL reaction were: 1.1 μg (1.5 μM) of eIF2Bα, 5 μl Thermal Shift buffer, 1X Thermal Shift dye, and metabolites in dose response. Reactions were run in 384-well format on a QuantStudio 6 Flex instrument (Thermo Fisher). The resulting melt curves were analyzed using Protein Thermal Shift Software, and eIF2Bα Tms for each condition were calculated by fitting to the Boltzmann function.

eIF2B = target: T2, eIF2B (Homo sapiens, UniProt P49770+Q14232+Q9UI10); assay: eIF2B GEF activity assay, unbiased metabolite screen (Bodipy-FL-GDP release); assay type: biochemical; details: 10 μM metabolite
T2 construct: made in house; host or cells: eIF2Bα: E. coli BL21(DE3)
Description: (§1) Bodipy-FL-GDP-loaded eIF2 was used as a substrate for recombinant eIF2B. The assay was performed in 384-well plates. Reactions were read on a SpectraMax i3x plate reader (Molecular Devices) using the instrument’s Softmax Pro software with the following parameters: plate temperature = 25 °C; excitation wavelength = 485 nm (15 nm width); emission wavelength = 535 nm (25 nm width); read duration = 30 min at 45 s intervals. Data were analyzed in Prism. GDP release half-lives were calculated by fitting single-exponential decay curves.
For unbiased screening, MIDAS metabolite libraries at 10 mM stock concentration were dispensed into wells of the assay plate using an Echo Acoustic Liquid Handler (Labcyte). […] A single well was run for each metabolite. […] For targeted experiments with HEK293T lysates, the following conditions were used: 50 nM Bodipy-FL-GDP-loaded eIF2, 0.1 mM GDP, 1 mg/ml BSA, 0.1 or 0.3 mg/ml lysates.

[3] = tested on: recombinant C. thermophilum eIF2Bα; set-up: method as in PMID 26384431; details: ITC; cited from earlier work
[4] = target: T3, eIF2B in WT HEK293T lysate (Homo sapiens, UniProt P49770+Q14232+Q9UI10); assay: GEF activity assay with WT HEK293T lysate; assay type: biochemical
T3 construct: endogenous in cells; host or cells: HEK293T (wild type) lysate
Description: as §1
(§2) For unbiased screening, MIDAS metabolite libraries at 10 mM stock concentration were dispensed into wells of the assay plate using an Echo Acoustic Liquid Handler (Labcyte). In a final assay volume of 10 μL/well, the following conditions were kept constant: 25 nM Bodipy-FL-GDP-loaded eIF2, 4 nM phospho-eIF2, 0.1 mM GDP, 1 mg/mL BSA, 1 nM eIF2B, 10 μM metabolite. A single well was run for each metabolite. For targeted experiments with recombinant wild-type and mutant eIF2Bα, the following conditions were used: 50 nM Bodipy-FL-GDP-loaded eIF2, 0.1 mM GDP, 1 mg/ml BSA, 20 nM eIF2B. For targeted experiments with HEK293T lysates, the following conditions were used: 50 nM Bodipy-FL-GDP-loaded eIF2, 0.1 mM GDP, 1 mg/ml BSA, 0.1 or 0.3 mg/ml lysates.

[5] = target: T4, eIF2B in eIF2Bα^E198K HEK293T lysate (Homo sapiens, UniProt P49770+Q14232+Q9UI10, E198K); assay: GEF activity assay with eIF2Bα E198K HEK293T lysate; assay type: biochemical
T4 construct: endogenous in cells; host or cells: HEK293T, CRISPR knock-in eIF2Bα E198K (homozygous), lysate
Description: as §1, §2

[6] = target: T5, eIF2B decamer in WT HEK293T lysate (Homo sapiens, UniProt P49770+Q14232+Q9UI10); assay: Sucrose gradient centrifugation, eIF2B complex assembly, WT HEK293T lysate; assay type: biochemical; details: 400 mM KCl, 5–20% sucrose gradient
T5 construct: endogenous in cells; host or cells: HEK293T (wild type) lysate
Description: (§3) WT or eIF2Bα mutant HEK293T cells were harvested and lysed in 50 mM HEPES, 400 mM KCl, 1 mM DTT, 4 mM Mg(OAc)2, pH 7.5 + 0.5% Triton-X-100 + EDTA-free protease inhibitor cocktail (Roche) on ice for 30 min. Lysates were cleared by centrifugation at 48,000 × g, 4 °C for 30 min. 100 μL of each cleared lysate was loaded onto a 5–20% sucrose gradient prepared in a 13 × 51 mm ultracentrifuge tube using a Gradient Station (Biocomp) and centrifuged in a SW55 Ti rotor at 152,000 × g, 4 °C for 12 h. After centrifugation, 24 × 200 μL fractions were manually collected from the top to bottom of each gradient. Each fraction was subjected to methanol/chloroform precipitation and SDS-PAGE followed by Western Blot with the indicated antibodies. Blots were imaged on a ChemiDoc MP (Bio-Rad), and band intensities were quantified using the instrument’s Image Lab software. Each value was then divided by total intensity obtained across all fractions to determine percent enrichment of each subunit in each fraction.

[7] = target: T6, eIF2B decamer in eIF2Bα^E198K HEK293T lysate (Homo sapiens, UniProt P49770+Q14232+Q9UI10, E198K); assay: Sucrose gradient centrifugation, eIF2B complex assembly, eIF2Bα E198K HEK293T lysate; assay type: biochemical
T6 construct: endogenous in cells; host or cells: HEK293T, CRISPR knock-in eIF2Bα E198K (homozygous), lysate
Description: as §3

[8] = target: T7, eIF2B decamer in eIF2Bα^V183F HEK293T lysate (Homo sapiens, UniProt P49770+Q14232+Q9UI10, V183F); assay: Sucrose gradient centrifugation, eIF2B complex assembly, eIF2Bα V183F HEK293T lysate; assay type: biochemical; details: 500 nM ISRIB, 200 μM F6P
T7 construct: endogenous in cells
Description: as §3

[9] = target: T8, recombinant eIF2B(βδγε) ± eIF2Bα2 (Homo sapiens, UniProt P49770+Q14232+Q9UI10); assay: Size-exclusion chromatography of recombinant eIF2B(βδγε) with or without eIF2Bα; assay type: biochemical; details: SEC, recombinant eIF2B(βδγε) + eIF2Bα2; 500 nM ISRIB, 200 μM F6P
T8 construct: made in house; host or cells: eIF2Bα: E. coli BL21(DE3)
Description: (§4) Purified proteins were thawed and centrifuged at 20,000 × g, 10 min, 4 °C to remove any potential precipitate. Concentrations of eIF2B(βδγε) and eIF2Bα were normalized to 2 μM and 2.4 μM, respectively. 0.2 mL of each mixture was injected onto a Superose 6 Increase 10/300 column connected to an AKTA Pure 25 FPLC system (GE Healthcare). The system was run at 0.5 mL/min for 1 h using 25 mM HEPES, 200 mM KCl, 2 mM MgCl2, 1 mM DTT, pH 7.5 as the mobile phase. For conditions with ISRIB, the protein samples and mobile phase were supplemented with 500 nM ISRIB. For conditions with F6P, the protein samples and mobile phase were supplemented with 200 μM F6P. UV280 measurements were obtained directly by the instrument.

[10] = target: T9, recombinant eIF2B(βδγε) ± eIF2Bα2 (Homo sapiens, UniProt P49770+Q9UI10); assay: as above; assay type: biochemical; details: SEC, recombinant eIF2B(βδγε); 500 nM ISRIB, 200 μM F6P
T9 construct: made in house; host or cells: eIF2Bα: E. coli BL21(DE3)
Description: as §4

eIF2Bα^V183F = target: T10, eIF2Bα^V183F (Homo sapiens, UniProt Q14232, V183F); assay: Size-exclusion chromatography of recombinant eIF2Bα V183F, alone or with eIF2B(βδγε); assay type: biochemical; details: SEC, eIF2Bα V183F alone
T10 construct: made in house; host or cells: E. coli BL21(DE3)
T10 sequence (Q14232 1-305 V183F): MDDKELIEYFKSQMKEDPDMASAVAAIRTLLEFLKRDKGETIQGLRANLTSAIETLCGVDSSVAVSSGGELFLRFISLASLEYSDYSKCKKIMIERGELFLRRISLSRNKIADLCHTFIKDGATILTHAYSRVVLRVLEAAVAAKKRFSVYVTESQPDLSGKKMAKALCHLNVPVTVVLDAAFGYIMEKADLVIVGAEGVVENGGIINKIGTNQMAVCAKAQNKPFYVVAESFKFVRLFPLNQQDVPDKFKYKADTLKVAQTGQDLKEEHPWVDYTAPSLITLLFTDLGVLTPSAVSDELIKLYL
Description: as §4

[11] = target: T11, phospho-eIF2α binding to eIF2B (Homo sapiens, UniProt P49770+Q14232+Q9UI10); assay: Phospho-eIF2α co-immunoprecipitation with FLAG-tagged eIF2B; details: lysate of thapsigargin-treated HEK293T eIF2Bβ-FLAG cells; ligand 2 h at 4 °C
T11 construct: endogenous in cells; host or cells: HEK293T with FLAG knock-in at the endogenous eIF2Bβ locus, treated with thapsigargin; lysate, anti-FLAG IP
Description: HEK293T cells endogenously expressing eIF2Bβ with a C-terminal FLAG tag were maintained in DMEM High Glucose (Corning CellGro) supplemented with 10% FBS (Gibco) and antibiotic-antimycotic (Gibco). Upon reaching 90% confluency, cells were treated with either DMSO or 100 nM thapsigargin (Sigma) for 4 h. Cells were harvested and lysed in 25 mM HEPES, 150 mM KCl, 1% NP-40, 1 mM EDTA, pH 7.4 + Complete protease inhibitor cocktail (Roche) and PhosStop (Roche) on ice for 20 min. Lysates were cleared by centrifugation at 18,000 × g, 20 min, 4 °C, and transferred to Eppendorf tubes containing anti-FLAG M2 magnetic beads (Sigma). Mixtures were incubated overnight at 4 °C. To test the effect of ligands, these were added to the mixtures and incubated for an additional 2 h at 4 °C. Beads were washed three times with lysis buffer, eluted with 1× LDS buffer (Invitrogen), and subjected to SDS-PAGE followed by Western Blot with the indicated antibodies.

T5 sequence (P49770 whole entry, one chain of several): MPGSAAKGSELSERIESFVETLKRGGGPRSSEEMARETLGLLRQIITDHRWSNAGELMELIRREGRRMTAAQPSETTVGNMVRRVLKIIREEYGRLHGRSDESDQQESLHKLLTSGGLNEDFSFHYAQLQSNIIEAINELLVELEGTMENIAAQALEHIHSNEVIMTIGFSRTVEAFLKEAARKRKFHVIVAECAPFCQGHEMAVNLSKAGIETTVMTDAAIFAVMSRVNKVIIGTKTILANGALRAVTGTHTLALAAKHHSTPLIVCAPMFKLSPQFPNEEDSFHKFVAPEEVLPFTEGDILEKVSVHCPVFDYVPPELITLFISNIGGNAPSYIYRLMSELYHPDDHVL
T5 sequence (Q9UI10 whole entry, one chain of several): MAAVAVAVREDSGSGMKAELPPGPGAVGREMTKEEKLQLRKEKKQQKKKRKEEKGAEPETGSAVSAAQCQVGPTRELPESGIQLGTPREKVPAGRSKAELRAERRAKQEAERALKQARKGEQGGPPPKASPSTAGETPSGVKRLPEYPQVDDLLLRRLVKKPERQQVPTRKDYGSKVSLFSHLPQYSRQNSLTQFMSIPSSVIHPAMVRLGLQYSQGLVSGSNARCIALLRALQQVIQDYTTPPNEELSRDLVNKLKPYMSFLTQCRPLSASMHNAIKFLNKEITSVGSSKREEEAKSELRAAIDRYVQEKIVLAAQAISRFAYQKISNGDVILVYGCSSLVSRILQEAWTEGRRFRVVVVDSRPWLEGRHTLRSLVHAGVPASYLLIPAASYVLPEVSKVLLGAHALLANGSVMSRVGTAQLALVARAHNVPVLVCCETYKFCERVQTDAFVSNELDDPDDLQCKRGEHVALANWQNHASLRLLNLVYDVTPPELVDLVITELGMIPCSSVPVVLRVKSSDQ
T5 sequence (Q9NR50 whole entry partner, one chain of several): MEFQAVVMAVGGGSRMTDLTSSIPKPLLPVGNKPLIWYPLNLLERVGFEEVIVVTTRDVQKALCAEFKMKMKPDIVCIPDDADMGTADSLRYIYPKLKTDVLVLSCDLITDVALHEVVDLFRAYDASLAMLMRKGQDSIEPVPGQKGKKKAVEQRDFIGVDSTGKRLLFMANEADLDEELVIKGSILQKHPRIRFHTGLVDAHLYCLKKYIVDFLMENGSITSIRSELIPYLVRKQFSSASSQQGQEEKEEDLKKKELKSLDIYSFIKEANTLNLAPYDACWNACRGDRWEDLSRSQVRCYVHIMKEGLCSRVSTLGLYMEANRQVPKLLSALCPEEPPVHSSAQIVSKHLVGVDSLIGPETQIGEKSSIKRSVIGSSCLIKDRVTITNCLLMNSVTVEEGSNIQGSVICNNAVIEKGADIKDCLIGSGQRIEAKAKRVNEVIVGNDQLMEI
T5 sequence (Q13144 whole entry partner, one chain of several): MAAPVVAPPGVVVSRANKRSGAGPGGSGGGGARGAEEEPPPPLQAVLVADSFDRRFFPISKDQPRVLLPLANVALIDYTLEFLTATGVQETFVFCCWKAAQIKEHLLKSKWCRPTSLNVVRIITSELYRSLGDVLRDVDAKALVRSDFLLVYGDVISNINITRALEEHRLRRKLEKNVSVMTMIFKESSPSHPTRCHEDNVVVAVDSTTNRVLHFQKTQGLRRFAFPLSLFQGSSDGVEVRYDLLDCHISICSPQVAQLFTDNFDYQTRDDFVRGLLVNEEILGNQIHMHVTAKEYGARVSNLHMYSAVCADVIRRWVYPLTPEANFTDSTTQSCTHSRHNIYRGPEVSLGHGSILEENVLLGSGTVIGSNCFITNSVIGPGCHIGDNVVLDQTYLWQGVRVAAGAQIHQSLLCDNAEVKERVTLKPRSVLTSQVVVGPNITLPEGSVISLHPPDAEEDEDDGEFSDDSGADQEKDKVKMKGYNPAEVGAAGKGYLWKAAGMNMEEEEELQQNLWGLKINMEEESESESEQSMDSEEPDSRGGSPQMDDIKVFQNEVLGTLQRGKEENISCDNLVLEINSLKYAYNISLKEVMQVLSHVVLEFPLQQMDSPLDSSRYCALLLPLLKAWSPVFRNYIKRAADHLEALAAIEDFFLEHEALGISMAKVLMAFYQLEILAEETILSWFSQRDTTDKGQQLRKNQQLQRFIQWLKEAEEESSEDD
T8 sequence (P49770 whole entry, one chain of several): as the sequence (P49770 whole entry, one chain of several) above
T8 sequence (Q9UI10 2-523, one chain of several): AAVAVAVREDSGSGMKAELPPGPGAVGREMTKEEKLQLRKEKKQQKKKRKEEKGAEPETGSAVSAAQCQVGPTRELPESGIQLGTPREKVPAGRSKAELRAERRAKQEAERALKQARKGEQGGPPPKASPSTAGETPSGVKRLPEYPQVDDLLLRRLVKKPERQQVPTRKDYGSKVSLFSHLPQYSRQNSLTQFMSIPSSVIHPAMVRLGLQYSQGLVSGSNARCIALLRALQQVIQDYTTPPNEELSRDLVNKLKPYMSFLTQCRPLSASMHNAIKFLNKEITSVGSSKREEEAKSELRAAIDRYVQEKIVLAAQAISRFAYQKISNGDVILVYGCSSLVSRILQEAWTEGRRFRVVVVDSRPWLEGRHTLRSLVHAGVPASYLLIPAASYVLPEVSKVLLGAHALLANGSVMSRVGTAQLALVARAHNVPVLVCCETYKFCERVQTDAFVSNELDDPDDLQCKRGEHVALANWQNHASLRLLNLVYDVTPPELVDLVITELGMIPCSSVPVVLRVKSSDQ
T8 sequence (Q9NR50 whole entry partner, one chain of several): as the sequence (Q9NR50 whole entry partner, one chain of several) above
T8 sequence (Q13144 whole entry partner, one chain of several): as the sequence (Q13144 whole entry partner, one chain of several) above

## Nc1ncnc2c1ncn2[C@@H]1O[C@H](COP(=O)(O)O)[C@@H](O)[C@H]1O [AMP, Adenosine monophosphate]
eIF2Bα [1]
  log2(corrected fold change): 0.1066
eIF2Bα [2]; 0.33 mM metabolite
  Tm of eIF2Bα: 65.271 °C and 65.2418 °C and 65.0115 °C and 64.5232 °C
eIF2Bα [2]; 1 mM metabolite
  Tm of eIF2Bα: 66.0123 °C and 65.9255 °C and 65.7398 °C and 64.0959 °C
eIF2Bα [2]; 3.3 mM metabolite
  Tm of eIF2Bα: 65.3392 °C and 65.2463 °C and 65.3342 °C and 64.7156 °C
eIF2Bα [2]; 10 mM metabolite
  Tm of eIF2Bα: 66.4657 °C and 66.4512 °C and 66.2897 °C and 64.6159 °C
eIF2B
  effect on eIF2B GEF activity in the screen: a hit in this functional assay screen
[3]
  binding to C. thermophilum eIF2Bα: binding

## O=C(COc1ccc(Cl)cc1)NC1CCC(NC(=O)COc2ccc(Cl)cc2)CC1 (stereo not shown) [ISRIB, reference compound]
[4]
  effect on GEF activity of WT lysate: stimulated
[5]
  effect on GEF activity of eIF2Bα E198K lysate: boosted
[6]
  eIF2B decamer formation (migration of eIF2Bα and eIF2Bδ): formation of the decameric holoenzyme
[7]
  eIF2B decamer formation: produced a shift to the decameric form
[8]
  eIF2B decamer formation: promoted decamer formation at comparable levels
[9]
  complex formation in the presence of eIF2Bα: enhanced formation
[10]
  complex formation in the absence of eIF2Bα: enhanced formation of an (βδγε)2 octamer
eIF2Bα^V183F
  monomer-to-dimer shift of eIF2Bα V183F: had no effect
[11]
  co-immunoprecipitation of phospho-eIF2α with FLAG-tagged eIF2B: significantly disrupted
